The target in one assay is T1, ROS1-wt kinase domain (Homo sapiens, UniProt P08922).
T1 construct: TRKA-wt (1 nM, BPS Bio, 40280) kinase domains in buffer; purchased Carna 08-163
Kind of assay: Biochemical kinase assay, ROS1-wt. The conditions noted are these: 2 mM ATP substrate solution, read-out: Ki^app ROS1-wt. The method, then: (§1) First, 250 nL of compound dissolved in DMSO (100-fold of the desired concentration) was dispensed into a 384-well plate. A 12.5 μL substrate solution containing ATP (2 mM) and fluorogenic phosphorylation substrate AQT0101 (26 μM for ALK and ROS1, AssayQuant) or AQT0104 (26 μM for TRKA, AssayQuant) in buffer (50 mM HEPES pH 7.5, 0.01% Brij-35, 0.5 mM EGTA, 10 mM MgCl2) was added and mixed thoroughly. Then, a 12.5 μL kinase solution containing ALK-wt (1.5 nM, Carna, 08-518), ALK ALK L1196M/G1202R (3 nM, SignalChem, A19-12NG), ROS1-wt (0.6 nM, Carna, 08-163), ROS1-G2032R (0.5 nM, SignalChem, R14-12BG), or TRKA-wt (1 nM, BPS Bio, 40280) kinase domains in buffer ([…] HEPES pH 7.5, 0.01% Brij-35, 2% glycerol, 0.4 mg/mL BSA, 0.5 mM EGTA, and 10 mM MgCl2) was added and mixed thoroughly. The plate was sealed and read by SpectraMax Paradigm at λ=485 nm every 2 minutes for 120 minutes at 30° C. Initial rates of reaction (v) were calculated from the change in fluorescence intensity over time during the initial, linear portion of the reaction. Finally, apparent inhibitory constants (Ki^app) were determined from regression of v and I (inhibitor concentration) to Morrison Equation (E=enzyme concentration): […]

Assay [1] deals with T2, ALK L1196M/G1202R kinase domain (Homo sapiens, UniProt Q9UM73, G1202R/L1196M).
T2 construct: TRKA-wt (1 nM, BPS Bio, 40280) kinase domains in buffer; purchased SignalChem A19-12NG
The assay can be described thus: Biochemical kinase assay, ALK L1196M/G1202R. To be noted: 2 mM ATP substrate solution, read-out: Ki^app ALK-L1196M-G1202R. How it is done:
as §1

The next assay addresses T3, ALK-wt kinase domain (Homo sapiens, UniProt Q9UM73).
T3 construct: TRKA-wt (1 nM, BPS Bio, 40280) kinase domains in buffer; purchased Carna 08-518
Kind of assay: Biochemical kinase assay, ALK-wt. The conditions noted are these: 2 mM ATP substrate solution, read-out: Ki^app ALK-wt. The method, then: as §1

Assay [2] concerns the target T4, ROS1-G2032R kinase domain (Homo sapiens, UniProt P08922, G2032R).
T4 construct: TRKA-wt (1 nM, BPS Bio, 40280) kinase domains in buffer; purchased SignalChem R14-12BG
The assay can be described thus: Biochemical kinase assay, ROS1-G2032R. To be noted: 2 mM ATP substrate solution, read-out: Ki^app ROS1-G2032R. The method, then: as §1

The target in a further assay is T5, TRKA-wt kinase domain (Homo sapiens, UniProt P04629).
T5 construct: TRKA-wt (1 nM, BPS Bio, 40280) kinase domains in buffer; purchased BPS Bio 40280
The assay can be described thus: Biochemical kinase assay, TRKA-wt. To be noted: 2 mM ATP substrate solution, read-out: Ki^app TRKA-wt. How it is done:
as §1

As to `C[C@H]1Oc2cc(cnc2N)-c2c(C#N)noc2Cc2cn(C)nc2-c2ccc(F)cc21` [Compound 15], the Ki at ROS1-wt kinase domain was < 50 nM; in assay [1] it was < 50 nM; on ALK-wt kinase domain, < 50 nM; in assay [2], < 50 nM; on TRKA-wt kinase domain it was > 500 nM.
As to `CCc1nnn2c1-c1cnc(N)c(c1)O[C@H](C)c1cc(F)ccc1-c1ncc(F)cc1C2` [Compound 16], the Ki is < 50 nM on ROS1-wt kinase domain; < 50 nM in assay [1]; < 50 nM at ALK-wt kinase domain; < 50 nM in assay [2]; 50 to 500 nM on TRKA-wt kinase domain.
For `C[C@H]1Oc2cc(cnc2N)-c2c(C(F)F)cnn2Cc2cc(F)cnc2-c2ccc(F)cc21` [Compound 17], the Ki on ROS1-wt kinase domain was < 50 nM; in assay [1], 50 to 500 nM; at ALK-wt kinase domain, < 50 nM; in assay [2], 50 to 500 nM; at TRKA-wt kinase domain, 50 to 500 nM.
With `Cc1nc(C#N)c2n1Cc1cccnc1-c1ccc(F)cc1[C@@H](C)Oc1cc-2cnc1N` [Compound 18], the Ki at ROS1-wt kinase domain is < 50 nM; in assay [1], < 50 nM; at ALK-wt kinase domain it was < 50 nM; in assay [2], < 50 nM; at TRKA-wt kinase domain, > 500 nM.
For the molecule `CCc1noc2c1-c1cnc(N)c(c1)O[C@H](C)c1cc(F)ccc1-c1nn(C)cc1C2` [Compound 19], the Ki (at ROS1-wt kinase domain; in assay [1]; at ALK-wt kinase domain; in assay [2]; at TRKA-wt kinase domain) was < 50 nM each time.
As to `CCn1nnc2c1-c1cnc(N)c(c1)O[C@H](C)c1cc(F)ccc1-c1nn(C)cc1C2` [Compound 20], the Ki at ROS1-wt kinase domain was < 50 nM; in assay [1] it was < 50 nM; at ALK-wt kinase domain, < 50 nM; in assay [2] it was < 50 nM; on TRKA-wt kinase domain, 50 to 500 nM.
As for `C[C@H]1Oc2cc(cnc2N)-c2c(cnn2CC(F)F)Cc2cn(C)nc2-c2ccc(F)cc21` [Compound 22], the Ki is < 50 nM on ROS1-wt kinase domain; < 50 nM in assay [1]; < 50 nM at ALK-wt kinase domain; < 50 nM in assay [2]; > 500 nM at TRKA-wt kinase domain.
Regarding `C[C@H]1Oc2cc(cnc2N)-c2c(C#N)nnn2Cc2cn(C)nc2-c2ccc(F)cc21` [Compound 24], the Ki at ROS1-wt kinase domain is < 50 nM; in assay [1] it was < 50 nM; on ALK-wt kinase domain, < 50 nM; in assay [2] it was 50 to 500 nM; on TRKA-wt kinase domain it was > 500 nM.
Consider `C[C@H]1Oc2cc(cnc2N)-c2c(C#N)nnn2Cc2cccnc2-c2ccc(F)cc21` [Compound 25], for which the Ki at ROS1-wt kinase domain was < 50 nM; in assay [1], 50 to 500 nM; at ALK-wt kinase domain, < 50 nM; in assay [2], 50 to 500 nM; at TRKA-wt kinase domain it was > 500 nM.
On to `C[C@H]1Oc2cc(cnc2N)-c2c(C3CCC3)noc2Cc2cn(C)nc2-c2ccc(F)cc21` [Compound 26], for which the Ki on ROS1-wt kinase domain is < 50 nM; in assay [1], < 50 nM; on ALK-wt kinase domain, < 50 nM; in assay [2], < 50 nM; on TRKA-wt kinase domain, 50 to 500 nM.
Turning to `C[C@H]1Oc2cc(cnc2N)-c2c(cnn2CC(F)(F)F)Cc2cn(C)nc2-c2ccc(F)cc21` [Compound 27], the Ki at ROS1-wt kinase domain was < 50 nM; in assay [1] it was < 50 nM; at ALK-wt kinase domain it was < 50 nM; in assay [2], < 50 nM; at TRKA-wt kinase domain, > 500 nM.
For the molecule `CCn1ncc2c1-c1cnc(N)c(c1)O[C@H](C)c1cc(F)ccc1-c1nn(C)c(Cl)c1C2` [Compound 28], the Ki (at ROS1-wt kinase domain; in assay [1]; on ALK-wt kinase domain; in assay [2]; at TRKA-wt kinase domain) was < 50 nM in each case.
Consider `C[C@H]1Oc2cc(cnc2N)-c2c(nnn2CC2CC2)Cc2cn(C)nc2-c2ccc(F)cc21` [Compound 29], for which the Ki was < 50 nM at ROS1-wt kinase domain; < 50 nM in assay [1]; < 50 nM at ALK-wt kinase domain; < 50 nM in assay [2]; 50 to 500 nM on TRKA-wt kinase domain.
In the case of `CCc1noc2c1-c1cnc(N)c(c1)OCc1cc(F)ccc1-c1nn(C)cc1C2` [Compound 30], the Ki at ROS1-wt kinase domain was < 50 nM; in assay [1] it was < 50 nM; on ALK-wt kinase domain, < 50 nM; in assay [2] it was 50 to 500 nM; at TRKA-wt kinase domain, > 500 nM.
For the molecule `CCn1ncc2c1-c1cnc(N)c(c1)O[C@H](C)c1cc(F)ccc1-c1nccn1C2` [Compound 31], the Ki (on ROS1-wt kinase domain; in assay [1]; on ALK-wt kinase domain; in assay [2]; at TRKA-wt kinase domain) was < 50 nM throughout.
As to `CCn1ncc2c1-c1cnc(N)c(c1)O[C@H](C)c1cc(F)ccc1-n1nccc1C2` [Compound 33], the Ki (at ROS1-wt kinase domain; in assay [1]; at ALK-wt kinase domain; in assay [2]; on TRKA-wt kinase domain) was < 50 nM throughout.
With `CCn1ncc2c1-c1cnc(N)c(c1)OCc1cc(F)ccc1-c1nccn1C2` [Compound 34], the Ki on ROS1-wt kinase domain was < 50 nM; in assay [1] it was < 50 nM; at ALK-wt kinase domain it was < 50 nM; in assay [2], 50 to 500 nM; at TRKA-wt kinase domain, > 500 nM.
In the case of `CCn1ncc2c1-c1cnc(N)c(c1)OC(C)c1cc(F)ccc1-c1ccncc1C2` (centres unmarked) [Compound 36], the Ki at ROS1-wt kinase domain is < 50 nM; in assay [1], < 50 nM; at ALK-wt kinase domain it was < 50 nM; in assay [2] it was < 50 nM; on TRKA-wt kinase domain, 50 to 500 nM.
In the case of `CC1Oc2cc(cnc2N)-c2c(cnn2C2CCC2)Cn2ccnc2-c2ccc(F)cc21` (centres unmarked) [Compound 37], the Ki on ROS1-wt kinase domain was < 50 nM; in assay [1], < 50 nM; at ALK-wt kinase domain it was < 50 nM; in assay [2], < 50 nM; on TRKA-wt kinase domain, 50 to 500 nM.
As for `CCn1ncc2c1-c1cnc(N)c(c1)OC(C)c1cc(F)ccc1-n1cncc1C2` (centres unmarked) [Compound 38], the Ki on ROS1-wt kinase domain is < 50 nM; in assay [1] it was 50 to 500 nM; at ALK-wt kinase domain, < 50 nM; in assay [2] it was < 50 nM; at TRKA-wt kinase domain, > 500 nM.
`CC1Oc2cc(cnc2N)-c2c(cnn2CCF)Cn2ccnc2-c2ccc(F)cc21` (centres unmarked) [Compound 39]: the Ki at ROS1-wt kinase domain was < 50 nM; in assay [1], 50 to 500 nM; at ALK-wt kinase domain it was < 50 nM; in assay [2] it was < 50 nM; on TRKA-wt kinase domain it was > 500 nM.
Regarding `CC1Oc2cc(cnc2N)-c2c(cnn2CC(F)F)Cn2ccnc2-c2ccc(F)cc21` (centres unmarked) [Compound 40], the Ki on ROS1-wt kinase domain was < 50 nM; in assay [1], 50 to 500 nM; on ALK-wt kinase domain it was < 50 nM; in assay [2] it was < 50 nM; at TRKA-wt kinase domain, > 500 nM.
Turning to `CCn1ncc2c1-c1cnc(N)c(c1)OCc1cc(F)ccc1-n1nccc1C2` [Compound 41], the Ki on ROS1-wt kinase domain was < 50 nM; in assay [1], < 50 nM; at ALK-wt kinase domain, < 50 nM; in assay [2], < 50 nM; on TRKA-wt kinase domain, > 500 nM.
For `CCn1ncc2c1-c1cnc(N)c(c1)OC(C)c1cc(F)ccc1-c1ncncc1C2` (centres unmarked) [Compound 42], the Ki was < 50 nM at ROS1-wt kinase domain; < 50 nM in assay [1]; < 50 nM on ALK-wt kinase domain; < 50 nM in assay [2]; 50 to 500 nM at TRKA-wt kinase domain.
`CC1Oc2cc(cnc2N)-c2c(cnn2C(F)F)Cn2ccnc2-c2ccc(F)cc21` (centres unmarked) [Compound 44]: the Ki at ROS1-wt kinase domain was < 50 nM; in assay [1], 50 to 500 nM; at ALK-wt kinase domain it was < 50 nM; in assay [2], < 50 nM; on TRKA-wt kinase domain, 50 to 500 nM.
Turning to `CCn1ncc2c1-c1cnc(N)c(c1)O[C@H](C)c1cc(F)ccc1-c1nc(C)cn1C2` [Compound 45], the Ki (at ROS1-wt kinase domain; in assay [1]; at ALK-wt kinase domain; in assay [2]; at TRKA-wt kinase domain) was < 50 nM in each case.
Consider `CCn1ncc2c1-c1cnc(N)c(c1)O[C@H](C)c1cc(F)ccc1-n1ncc(C#N)c1C2` [Compound 47], for which the Ki is < 50 nM at ROS1-wt kinase domain; 50 to 500 nM in assay [1]; < 50 nM on ALK-wt kinase domain; < 50 nM in assay [2]; 50 to 500 nM on TRKA-wt kinase domain.
For `CCn1ncc2c1-c1cnc(N)c(c1)OCc1cc(F)ccc1-n1ncc(F)c1C2` [Compound 48], the Ki on ROS1-wt kinase domain was < 50 nM; in assay [1], < 50 nM; at ALK-wt kinase domain it was < 50 nM; in assay [2], < 50 nM; at TRKA-wt kinase domain, > 500 nM.

Values taken from US11667649B2, “Heteroaromatic macrocyclic ether chemotherapeutic agents” (Nuvalent, Inc., priority 2020, dated 2023).
